In patent publication US5654411A, “Process for preparing 4-deoxyerythromycin derivatives” (Abbott Laboratories, priority 1995, dated 1997):
Values after ≈ are worked out from the molar mass of the structure shown.

Assays:
[1] = test system: smooth muscle strips isolated from rabbit small intestine; experiment: Induction of in vitro rabbit duodenal smooth muscle contraction; details: for EC50: Oryctolagus cuniculus, rabbit duodenum longitudinal muscle, 37° C., pH 7.5, read-out: pED50 (negative logarithm of the concentration producing half of the maximal contraction) (converted); for Relative Potency: relative to erythromycin A = 1.0
Method: The compounds of the present invention were tested in vitro for their ability to induce contraction of smooth muscle strips isolated from rabbit small intestine using the following procedure:
Rabbits were sacrificed and 15 cm of duodenum was rapidly removed and placed in ice-cold modified Ringers solution (120 mM sodium chloride, 25 mM sodium bicarbonate, 4.7 mM potassium chloride, 1.25 mM calcium chloride, 1.20 mM magnesium sulfate and 5.6 mM glucose). The longitudinal muscle layer was separated from the circular muscle by blunt dissection and cut into strips of 10×20 mm. Double-folded strips were vertically suspended between two hooks in 10 mL tissue baths with a mechanical preload of 1 g. The upper hook was connected to an […] force transducer, and its displacement was recorded on a Grass polygraph. The tissue baths contained modified Ringers solution at 37° C. and were continuously gassed with 95% oxygen/5% carbon dioxide in order to maintain the pH at 7.5.
After a stabilization period of at least 60 minutes, a contractility dose-response series was performed by adding increasing final concentrations of methacholine (10^-7 M, 10^-6 M and 10^-5 M) in volumes of 100 μL. The bath solutions were replaced at least three times between doses.
After the methacholine dose-response series was completed, a test compound dose response curve was initiated by the same procedure used for the methacholine dose-response series, with at least five concentrations of test compound within the range of 10^-10 M to 10^-4 M. The tissues were washed repeatedly between doses, and the studies were completed by recording the contractile response to 10^-5 M methacholine to ascertain integrity of the muscle preparation. Contractile responses were expressed as percent of maximal contraction. The concentration of test compound which produces half of the maximal contraction (ED50 value) and the negative logarithm of the ED50 value (PED50) were estimated from the dose-response curves.

[2] = test system: Acinetobacter calcoaceticus CMX 669; experiment: Antibacterial activity (MIC), agar dilution method; format: cell-based; details: unit assumed
Method: (§1) Compounds of the invention were next tested for antibacterial potency, such activity being regarded as an undesirable side effect if prokinetic therapy. Assays were conducted using methodology well-known in the art (the agar dilution method).

[3] = test system: Enterobacter aerogenes ATCC 13048; experiment: Antibacterial activity (MIC), agar dilution method; format: cell-based; details: unit assumed
Method: as §1

[4] = test system: Enterococcus faecium ATCC 8043; experiment: Antibacterial activity (MIC), agar dilution method; format: cell-based; details: unit assumed
Method: as §1

[5] = test system: Escherichia coli DC-2; experiment: Antibacterial activity (MIC), agar dilution method; format: cell-based; details: unit assumed
Method: as §1

[6] = test system: Escherichia coli H560; experiment: Antibacterial activity (MIC), agar dilution method; format: cell-based; details: unit assumed
Method: as §1

[7] = test system: Escherichia coli JUHL; experiment: Antibacterial activity (MIC), agar dilution method; format: cell-based; details: unit assumed
Method: as §1

[8] = test system: Escherichia coli KNK 437; experiment: Antibacterial activity (MIC), agar dilution method; format: cell-based; details: unit assumed
Method: as §1

[9] = test system: Escherichia coli SS; experiment: Antibacterial activity (MIC), agar dilution method; format: cell-based; details: unit assumed
Method: as §1

[10] = test system: Klebsiella pneumoniae ATCC 8045; experiment: Antibacterial activity (MIC), agar dilution method; format: cell-based; details: unit assumed
Method: as §1

[11] = test system: Micrococcus luteus ATCC 4698; experiment: Antibacterial activity (MIC), agar dilution method; format: cell-based; details: unit assumed
Method: as §1

[12] = test system: Micrococcus luteus ATCC 9341; experiment: Antibacterial activity (MIC), agar dilution method; format: cell-based; details: unit assumed
Method: as §1

[13] = test system: Providencia stuartii CMX 640; experiment: Antibacterial activity (MIC), agar dilution method; format: cell-based; details: unit assumed
Method: as §1

[14] = test system: Pseudomonas aeruginosa A5007; experiment: Antibacterial activity (MIC), agar dilution method; format: cell-based; details: unit assumed
Method: as §1

[15] = test system: Pseudomonas aeruginosa BMH10; experiment: Antibacterial activity (MIC), agar dilution method; format: cell-based; details: unit assumed
Method: as §1

[16] = test system: Pseudomonas aeruginosa DPHD-2862; experiment: Antibacterial activity (MIC), agar dilution method; format: cell-based; details: unit assumed
Method: as §1

[17] = test system: Pseudomonas aeruginosa DPHD-5263; experiment: Antibacterial activity (MIC), agar dilution method; format: cell-based; details: unit assumed
Method: as §1

[18] = test system: Pseudomonas aeruginosa K799/61; experiment: Antibacterial activity (MIC), agar dilution method; format: cell-based; details: unit assumed
Method: as §1

[19] = test system: Pseudomonas aeruginosa K799/WT; experiment: Antibacterial activity (MIC), agar dilution method; format: cell-based; details: unit assumed
Method: as §1

[20] = test system: Pseudomonas cepacia 2961; experiment: Antibacterial activity (MIC), agar dilution method; format: cell-based; details: unit assumed
Method: as §1

[21] = test system: Staphylococcus aureus 1775; experiment: Antibacterial activity (MIC), agar dilution method; format: cell-based; details: unit assumed
Method: as §1

[22] = test system: Staphylococcus aureus 642A; experiment: Antibacterial activity (MIC), agar dilution method; format: cell-based; details: unit assumed
Method: as §1

[23] = test system: Staphylococcus aureus A-5278; experiment: Antibacterial activity (MIC), agar dilution method; format: cell-based; details: unit assumed
Method: as §1

[24] = test system: Staphylococcus aureus A5177; experiment: Antibacterial activity (MIC), agar dilution method; format: cell-based; details: unit assumed
Method: as §1

[25] = test system: Staphylococcus aureus ATCC 6538P; experiment: Antibacterial activity (MIC), agar dilution method; format: cell-based; details: unit assumed
Method: as §1

[26] = test system: Staphylococcus aureus CMX 553; experiment: Antibacterial activity (MIC), agar dilution method; format: cell-based; details: unit assumed
Method: as §1

[27] = test system: Staphylococcus aureus NCTC 10649; experiment: Antibacterial activity (MIC), agar dilution method; format: cell-based; details: unit assumed
Method: as §1

[28] = test system: Staphylococcus epidermidis 3519; experiment: Antibacterial activity (MIC), agar dilution method; format: cell-based; details: unit assumed
Method: as §1

[29] = test system: Streptococcus agalactiae CMX 508; experiment: Antibacterial activity (MIC), agar dilution method; format: cell-based; details: unit assumed
Method: as §1

[30] = test system: Streptococcus bovis A5169; experiment: Antibacterial activity (MIC), agar dilution method; format: cell-based; details: unit assumed
Method: as §1

[31] = test system: Streptococcus pyogenes 2548 INDUC; experiment: Antibacterial activity (MIC), agar dilution method; format: cell-based; details: unit assumed
Method: as §1

[32] = test system: Streptococcus pyogenes 930 CONST; experiment: Antibacterial activity (MIC), agar dilution method; format: cell-based; details: unit assumed
Method: as §1

[33] = test system: Streptococcus pyogenes EES61; experiment: Antibacterial activity (MIC), agar dilution method; format: cell-based; details: unit assumed
Method: as §1

CC[C@H]1OC(=O)[C@H](C)[C@@H](O[C@H]2C[C@@](C)(OC)C[C@H](C)O2)[C@H](C)[C@@H](O[C@@H]2O[C@H](C)C[C@H](N(C)CC)[C@H]2O)[C@@]2(C)C[C@@H](C)C(O2)[C@H](C)[C@@H](O)[C@]1(C)O [Example 15, 9-deoxo-3'-N-desmethyl-4",6-dideoxy-6,9-epoxy-3'-N-ethylerythromycin A]
EC50 [1]: 0.0234 µM | Relative Potency [1]: 60 | MIC [2]: > 100 mg/L | MIC [3]: > 100 mg/L | MIC [4]: 50 mg/L (≈ 69.8 µM) | MIC [5]: > 100 mg/L | MIC [6]: > 100 mg/L | MIC [7]: > 100 mg/L | MIC [8]: > 100 mg/L | MIC [9]: 100 mg/L (≈ 140 µM) | MIC [10]: > 100 mg/L | MIC [11]: 25 mg/L (≈ 34.9 µM) | MIC [12]: 25 mg/L (≈ 34.9 µM) | MIC [13]: > 100 mg/L | MIC [14]: > 100 mg/L | MIC [15]: > 100 mg/L | MIC [16]: > 100 mg/L | MIC [17]: > 100 mg/L | MIC [18]: > 100 mg/L | MIC [19]: > 100 mg/L | MIC [20]: > 100 mg/L | MIC [21]: > 100 mg/L | MIC [22]: > 100 mg/L | MIC [23]: > 100 mg/L | MIC [24]: > 100 mg/L | MIC [25]: 100 mg/L (≈ 140 µM) | MIC [26]: > 100 mg/L | MIC [27]: > 100 mg/L | MIC [28]: 100 mg/L (≈ 140 µM) | MIC [29]: 6.2 mg/L (≈ 8.66 µM) | MIC [30]: 6.2 mg/L (≈ 8.66 µM) | MIC [31]: 50 mg/L (≈ 69.8 µM) | MIC [32]: > 100 mg/L | MIC [33]: 25 mg/L (≈ 34.9 µM)

CC[C@H]1OC(=O)[C@H](C)[C@@H](O[C@H]2C[C@@](C)(OC)[C@@H](O)[C@H](C)O2)[C@H](C)[C@@H](O[C@@H]2O[C@H](C)C[C@H](N(C)C)[C@H]2O)[C@](C)(O)C[C@@H](C)C(=O)[C@H](C)[C@@H](O)[C@]1(C)O [Erythromycin]
MIC [2]: 6.2 mg/L (≈ 8.45 µM) | MIC [3]: 100 mg/L (≈ 136 µM) | MIC [4]: 0.05 mg/L (≈ 0.0681 µM) | MIC [5]: 50 mg/L (≈ 68.1 µM) | MIC [6]: 25 mg/L (≈ 34.1 µM) | MIC [7]: 50 mg/L (≈ 68.1 µM) | MIC [8]: 50 mg/L (≈ 68.1 µM) | MIC [9]: 0.2 mg/L (≈ 0.273 µM) | MIC [10]: 50 mg/L (≈ 68.1 µM) | MIC [11]: 0.1 mg/L (≈ 0.136 µM) | MIC [12]: 0.02 mg/L (≈ 0.0273 µM) | MIC [13]: > 100 mg/L | MIC [14]: > 100 mg/L | MIC [15]: 50 mg/L (≈ 68.1 µM) | MIC [16]: > 100 mg/L | MIC [17]: 100 mg/L (≈ 136 µM) | MIC [18]: 3.1 mg/L (≈ 4.22 µM) | MIC [19]: 100 mg/L (≈ 136 µM) | MIC [20]: > 100 mg/L | MIC [21]: > 100 mg/L | MIC [22]: 0.2 mg/L (≈ 0.273 µM) | MIC [23]: > 100 mg/L | MIC [24]: 1.56 mg/L (≈ 2.13 µM) | MIC [25]: 0.1 mg/L (≈ 0.136 µM) | MIC [26]: 0.2 mg/L (≈ 0.273 µM) | MIC [27]: 0.2 mg/L (≈ 0.273 µM) | MIC [28]: 0.2 mg/L (≈ 0.273 µM) | MIC [29]: 0.05 mg/L (≈ 0.0681 µM) | MIC [30]: 0.02 mg/L (≈ 0.0273 µM) | MIC [31]: 6.2 mg/L (≈ 8.45 µM) | MIC [32]: > 100 mg/L | MIC [33]: 0.05 mg/L (≈ 0.0681 µM)

CC[C@H]1OC(=O)[C@H](C)[C@@H](O[C@H]2C[C@@](C)(OC)C[C@H](C)O2)[C@H](C)[C@@H](O[C@@H]2O[C@H](C)C[C@H](N(C)CC)[C@H]2O)[C@@]2(C)C[C@H](C)C(O2)[C@H](C)[C@@H](O)[C@]1(C)O [Example 11, 9-deoxo-3'-N-desmethyl-4",6-dideoxy-8-epi-3'-N-ethyl-6,9-epoxyerythromycin A]
EC50 [1]: 0.00288 µM | Relative Potency [1]: 490 | MIC [2]: > 100 mg/L | MIC [3]: > 100 mg/L | MIC [4]: 50 mg/L (≈ 69.8 µM) | MIC [5]: > 100 mg/L | MIC [6]: > 100 mg/L | MIC [7]: > 100 mg/L | MIC [8]: > 100 mg/L | MIC [9]: > 100 mg/L | MIC [10]: > 100 mg/L | MIC [11]: 25 mg/L (≈ 34.9 µM) | MIC [12]: 25 mg/L (≈ 34.9 µM) | MIC [13]: > 100 mg/L | MIC [14]: > 100 mg/L | MIC [15]: > 100 mg/L | MIC [16]: > 100 mg/L | MIC [17]: > 100 mg/L | MIC [18]: > 100 mg/L | MIC [19]: > 100 mg/L | MIC [20]: > 100 mg/L | MIC [21]: > 100 mg/L | MIC [22]: > 100 mg/L | MIC [23]: > 100 mg/L | MIC [24]: 100 mg/L (≈ 140 µM) | MIC [25]: > 100 mg/L | MIC [26]: > 100 mg/L | MIC [27]: 100 mg/L (≈ 140 µM) | MIC [28]: 100 mg/L (≈ 140 µM) | MIC [29]: 6.2 mg/L (≈ 8.66 µM) | MIC [30]: 50 mg/L (≈ 69.8 µM) | MIC [31]: 50 mg/L (≈ 69.8 µM) | MIC [32]: 100 mg/L (≈ 140 µM) | MIC [33]: 25 mg/L (≈ 34.9 µM)
